Measurements taken from patent publication US6962712B2, “Cosmetic or dermatological composition comprising of a combination of an elastase inhibitor of the N-acylaminoamide family and at least one antifungal agent or at least one antibacterial agent” (L'Oreal, priority 2001, dated 2005).

Legend:
[1] = biological target: T1, human leukocyte elastase (HLE) (Homo sapiens, UniProt P08246); assay: in vitro anti-elastase activity against human leukocyte elastase, substrate Me-OSAAPV-p-NA, spectrophotometry; assay type: biochemical; conditions: compound concentration 0.1%; HLE 40 milliunits per ml; 37° C., 60 minutes
T1 sequence (P08246 30-267): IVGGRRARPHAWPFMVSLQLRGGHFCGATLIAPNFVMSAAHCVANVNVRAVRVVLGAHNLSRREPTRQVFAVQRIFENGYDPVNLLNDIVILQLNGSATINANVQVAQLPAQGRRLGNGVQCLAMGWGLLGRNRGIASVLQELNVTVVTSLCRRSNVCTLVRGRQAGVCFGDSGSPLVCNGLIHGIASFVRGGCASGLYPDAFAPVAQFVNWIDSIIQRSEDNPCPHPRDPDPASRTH
Procedure: The anti-elastase activity of compounds according to the invention was determined in vitro against human leukocyte elastase (HLE)
The test was performed in the following manner:
A substrate Me-OSAAPV-p-NA (methyl-O-succinate alanine alanine proline valine-p-nitroanilide) to which is added the HLE (40 milliunits per ml) and 0.1% of the test compound is incubated at 37° C. for 60 minutes.
The % of inhibition of the elastase activity tested is then determined by spectrophotometry.

[2] = tested on: surviving human skins irradiated by UVA; assay: surviving human skins irradiated by UVA (8 J/cm2), morphometry of elastin fibres and collagen (Example 6); conditions: UVA 8 J/cm2 once, 5 μl of compound at 0.2% in ethanol every two days, 7 days at 37° C.
Procedure: The activity of the compound of Example 2 was evaluated on irradiated surviving human skins irradiated by UVA (8 J/cm2).
The test is performed in the following manner:
Fragments of normal human skin derived from four different donors are deposited in inserts placed in culture wells. Culture medium supplemented with antibiotics is added to the bottom of the wells. Passage by slow diffusion occurs between the two compartments through the intermediary of a porous membrane (pore size: 12 μm).
The culture medium is renewed every three days.
Every two days 5 μl of the test compound previously dissolved at 0.2% in ethanol are added to the skin fragments.
The skins are maintained in survival for 7 days at 37° C.
The skins are irradiated once only at 8 J/cm2 (Vilbert-Lourmat RMX-3W lamp).
The elastin fibres are stained blue with (+) catechol and quantified morphometrically by computer-assisted image analysis. The mean percentage dermal surface area occupied by the elastin fibres was thus evaluated.

Staphylococcus epidermis [3] = assay: ex vivo bacteria/skin adhesion model, 3H-thymidine labelled bacteria on intact human skin (Example 8); assay type: cell-based; conditions: test product at 10%, 1 hour at 20° C., control (PBS) = 100%
Procedure: The activity of the honey on the adhesion of micro-organisms to the skin or to human mucous membranes was measured.
This ex vivo bacteria/skin adhesion model is based on the use of intact human skin mounted in a sandwich between a bottomless 96 wells plate and a Plexiglas support. The impervious individualized wells make it possible to test in a standard format the effect of acacia honey on the adhesion of Staphylococcus epidermis (resident bacteria) to the surface of the skin. The bacteria are radiolabelled in the growth phase by the incorporation of 3H-thymidine. This bacterial flora is then deposited in each well. After incubation for one hour at 20° C., the wells are washed three times with phosphate buffered saline (PBS) in order to remove the free bacteria. The acacia honey is then added at 5 and 10% and incubation allowed to proceed for 1 hour at 20° C. At the end of this incubation the content of each well is recovered and counted in scintillation fluid (desorbed bacteria). The wells are then washed with a chaotropic solution which leads to the elution of the adherent bacteria. The washing solutions are also counted in scintillation fluid (adherent bacteria). The positive and negative controls (Fucogel® acid (poly-[(α-1,3)-Fuc-(α-1,3)-Gal-(α-1,3)-galacturonic]) acid and Bioecolia® (Oligo-[α-1,4)-Gluc-(α-1,2)-Fruc-(α-1,6)-Gluc]) described in the publication of Wolf F. et al. (edition of 19th IFSCC Congress, Sydney, 1996) are included in the study as references.

Staphylococcus epidermis [4] = assay: ex vivo bacteria/skin adhesion model, 3H-thymidine labelled bacteria on intact human skin (Example 9); assay type: cell-based; conditions: for Adherent bacteria: control (PBS) = 100%
Procedure: The activity of resveratrol on the adhesion of micro-organisms to human skin or human mucous membranes was measured.
The activity of resveratrol (3,4′,5-trihydroxystilbene) on the adhesion of micro-organisms to human skin or human mucous membranes was tested in a bacteria/skin adhesion model, such as described below.
This ex vivo bacteria/skin adhesion model is based on the use of explants of intact human skin mounted in a sandwich between a bottomless 96 wells plate and a Plexiglas support.
This ex vivo bacteria/skin adhesion model is based on the use of intact human skin mounted in a sandwich between a bottomless 96 wells plate and a Plexiglas support. The impervious individualized wells make it possible to test in a standard format the effect of resveratrol on the adhesion of Staphylococcus epidermis (resident bacteria) to the surface of the skin. The bacteria are radiolabelled in the growth phase by the incorporation of 3H-thymidine. This bacterial flora is then deposited in each well. After incubation for one hour at 20° C., the wells are washed three times with phosphate buffered saline (PBS) in order to remove the free bacteria. The acacia honey is then added at 5 and 10% and incubation allowed to proceed for 1 hour at 20° C. At the end of this incubation the content of each well is recovered and counted in scintillation fluid (desorbed bacteria). The wells are then washed with a chaotropic solution which leads to the elution of the adherent bacteria. The washing solutions are also counted in scintillation fluid (adherent bacteria). A positive control (Fucogel® acid (poly-[(α-1,3)-Fuc-(α-1,3)-Gal-(α-1,3)-galacturonic]) acid is included in the study as reference.

[5] = Staphylococcus, read-out: % of inhibition of adhesion of the bacteria

For `CC(=O)OCCNC(=O)C(C(C)C)N(Cc1ccccc1)C(C)=O` (centres unmarked) [Compound D, [2-(acetyl-benzyl-amino)-3-methyl-butyrylamino]ethyl acetate], which “% inhibition of elastase activity tested” value [1] is on record?
The value was 13%.

For `CC(=O)N(c1cccc(C(F)(F)F)c1)C(C(=O)NCC(=O)O)C(C)C` (centres unmarked) [Compound A, {2-[acetyl-(3-trifluoromethyl-phenyl)-amino]-3-methyl-butyrylamino}acetic acid], which “Morphometric analysis of elastin fibres (superficial dermis)” value ([2]; untreated 6.75%, UVA alone 3.9%) is on record?
Its value is 6.8%.

What about the “Morphometric analysis of collagen (superficial dermis)” value ([2]; untreated 87%, UVA alone 81%) of the same molecule?
The value was 92%.

Which “% inhibition of elastase activity tested” value [1] does the source give for `CCOP(=O)(CC(=O)N(Cc1ccccc1)C(C(=O)NCCOC(C)=O)C(C)C)OCC` (centres unmarked) [Compound B, (2-{benzyl-[(diethoxy-phosphoryl)-acetyl]-amino}-3-methyl-butyryl-amino)ethyl acetate] here?
Its value is 17%.

Which Adherent bacteria (Staphylococcus epidermis [3]) does the source give for “Oligo-[α-1,4)-Gluc-(α-1,2)-Fruc-(α-1,6)-Gluc] [Bloé´colia ®]” here?
The Adherent bacteria was 76%.

What about the Desorbed bacteria (Staphylococcus epidermis [3]) of the same molecule?
Its Desorbed bacteria is 89%.

What about the Adherent bacteria (Staphylococcus epidermis [3]; listed as Bioecolia®) of the same molecule?
The Adherent bacteria was “no significant effect on adhesion”.

What does the source list for “poly-[(α-1,3)-Fuc-(α-1,3)-Gal-(α-1,3)-galacturonic]) acid [Fucogel ®]”?
Adherent bacteria (Staphylococcus epidermis [4]; test product at 10%): 42%; Adherent bacteria (Staphylococcus epidermis [3]): 12%; Desorbed bacteria (Staphylococcus epidermis [3]): 257%

`Oc1ccc(C=Cc2cc(O)cc(O)c2)cc1` [resveratrol, 3,4′,5-trihydroxystilbene] was tested. Which Adherent bacteria (Staphylococcus epidermis [4]; 0.1 μM) did it give?
Its Adherent bacteria is 71%.

What about the Adherent bacteria (Staphylococcus epidermis [4]; 10 μM) of the same molecule?
The Adherent bacteria was 64%.

And the inhibition at 0.1 µM (Staphylococcus epidermis [4]; [5])?
The inhibition at 0.1 µM was 29%.

What about the inhibition at 10 µM (Staphylococcus epidermis [4]; [5]) of the same molecule?
Its inhibition at 10 µM is 36%.
